This is an account of results in US5210215A, “Tryptophane and 3-indolepyruvic acid, methods of production therefor” (Polifarma S.p.A., priority 1989, dated 1993).

Assay [1] has as its system formation of free radicals from biological membrane undergoing oxidative stress (MDA formation). Nature of the assay: Formation of malonodialdehyde (MDA) test: antagonism of free radical formation from biological membrane undergoing oxidative stress. The class given is biochemical. Particulars: in vitro; IC50 = dose of compound necessary to reduce by 50% the harmful effect. The protocol:
For the first experiment was chosen the test on formation of malonodialdehyde (MDA). Briefly, the capacity was tested of the above compounds to antagonize the formation of free radicals from biological membrane undergoing oxidative stress.
(§1) of compound necessary to reduce by 50% the harmful effect to be added to the in vitro tests or to be administered to mice.

The subject of assay [2] is convulsions and death induced by NMDA (N-methyl-D-aspartic acid). Nature of the assay: Antagonism of convulsions and death induced by NMDA (N-methyl-D-aspartic acid). The class given is in vivo. Particulars: Mus musculus, ip, mice, IC50 = dose necessary to reduce by 50% the harmful effect. The protocol: For the second experiment, on the contrary, the capacity of the compounds to antagonize the convulsions and death induced by NMDA (N-methyl-D-aspartic acid), an excitatory amino acid, was evaluated.
as §1

Where [3] appears, read: convulsions, read-out: CONVULSIONS from MDA IC50.
[4] abbreviates: death, read-out: DEATH from MDA IC50.

SMILES strings stand for the structures. Like-named read-outs stand apart in the source and are kept apart here.

With `O=C(O)C(=O)Cc1c[nH]c2ccccc12` [IPA, 3-indolepyruvic acid], half-maximal inhibition in assay [1] (IC50) required 10 µM. The values for the ED50 in assay [2] (setting [3]) and in assay [2] (setting [4]) were 200 mg/kg and 50 mg/kg, respectively.

The compound `O=C(O)C(=O)Cc1c[nH]c2c(Cl)cccc12` [7-Cl-IPA] yielded an IC50 in assay [1] of 400 µM. The ED50 in assay [2] (setting [3]) came out at 1000 mg/kg; in assay [2] (setting [4]), 200 mg/kg.

`O=C(O)C(=O)Cc1c[nH]c2ccc(Cl)cc12` [5-Cl-IPA, 5-chloro-indole-3-yl-pyruvic] gave an IC50 in assay [1] of 500 µM. Besides, the ED50 in assay [2] (setting [3]) came to 600 mg/kg; in assay [2] (setting [4]), 200 mg/kg.

In the case of `O=C(O)C(=O)Cc1c[nH]c2cc(Br)ccc12` [6-Br-IPA], the 50% inhibitory concentration (IC50) in assay [1] was determined as 50 µM. Further, the ED50 in assay [2] (setting [3]) was 100 mg/kg; in assay [2] (setting [4]), 20 mg/kg.

Regarding `O=C(O)C(=O)Cc1c[nH]c2cc(O)ccc12` [6-OH-IPA], in assay [1], the IC50 was 500 µM. Moreover, the ED50 stood at 800 mg/kg in assay [2] (setting [3]) and 200 mg/kg in assay [2] (setting [4]).

Consider `O=C(O)C(=O)Cc1c[nH]c2cc(Cl)ccc12` [6-Cl-IPA, 6-chloro-indole-3-yl-pyruvic acid], for which the midpoint of inhibition in assay [1], the IC50, lay at 100 µM. Moreover, the ED50 was 20 mg/kg in assay [2] (setting [3]) and 10 mg/kg in assay [2] (setting [4]).

Take `NC(Cc1c[nH]c2cc(Cl)ccc12)C(=O)O` (racemic) [6-Cl-TRP, 6-chloro-DL-tryptophan]: the IC50 in assay [1] turned out to be 1000 µM. In addition, the ED50 was found to be 1000 mg/kg in assay [2] (setting [3]) and 200 mg/kg in assay [2] (setting [4]).

Turning to `COc1ccc2c(CC(=O)C(=O)O)c[nH]c2c1` [6-OMe-IPA], inhibition in assay [1] was half-maximal at 100 µM (IC50). Besides, the ED50 is 200 mg/kg in assay [2] (setting [3]) and 100 mg/kg in assay [2] (setting [4]).

In assay [1], `Cc1ccc2c(CC(=O)C(=O)O)c[nH]c2c1` [6-Me-IPA, 6-methyl-indole-3-yl-pyruvic] gave a concentration for half-maximal inhibition (IC50) of 60 µM. Moreover, the results for the ED50 in assay [2] (setting [3]) and in assay [2] (setting [4]) were 200 mg/kg and 100 mg/kg, respectively.

For the compound `O=C(O)C(=O)Cc1c[nH]c2cccc(Cl)c12` [4-Cl-IPA, 4-chloro-indole-3-yl-pyruvic], the midpoint of inhibition in assay [1], the IC50, lay at 1000 µM. Moreover, the ED50 in assay [2] (setting [3]) was 1000 mg/kg; in assay [2] (setting [4]), 200 mg/kg.
